Experimental findings from patent publication US8148422B2, “Sulfonamides as TRPM8 modulators” (Janssen Pharmaceutica, NV, priority 2008, dated 2012) are described below.

In general, inhibition refers to the drop in the measured response relative to a control, in per cent. One may read the IC50 as the concentration that gives 50% inhibition.

Structures are written as SMILES.

For this test, the target named is T1, canine TRPM8 (Canis lupus familiaris, UniProt Q1A7N1).
T1 construct: expressed in transfected cells
Briefly: In vitro canine TRPM8 functional assay (Ca2+-sensitive fluorescent dye, FLIPR or FDSS, icilin challenge). In kind it is cell-based. Particulars: HEK293 cells stably expressing canine TRPM8; for inhibition at 0.2 µM: 0.2 μM compound, icilin challenge; for IC50: icilin at approx. 80% maximal response, eight-point dose-response, single determinations unless otherwise noted, read-out: IC50. The protocol: The functional activity of compounds of the formula (I) was determined by measuring changes in intracellular calcium concentration using a Ca^2+-sensitive fluorescent dye. The changes in fluorescent signal were monitored by a fluorescence plate reader, either a FLIPR™ (Molecular Devices) or FDSS (Hamamatsu).
At 24 hrs prior to assay, HEK293 cells stably expressing canine TRPM8 were seeded in culture medium in black wall, clear-base poly-D-lysine coated 384-well plates (BD Biosciences, NJ, USA) and grown overnight in 5% CO2 at 37° C. On assay day, growth media was removed and cells were loaded with Calcium 3 Dye (Molecular Devices) for 35 min at 37° C., under 5% CO2 and then for 25 min at room temperature and atmosphere. Subsequently, cells were tested for agonist-induced increases in intracellular Ca^2+ levels using FLIPR™ or FDSS. Cells were challenged with a compound of the Formula (I) (at varying concentrations) and intracellular Ca^2+ was measured for 5 min prior to the addition of icilin to all wells to achieve a final concentration that produces approximately an 80% maximal response. EC50 or IC50 values for compounds of the present invention were determined from eight-point dose-response studies. Curves were generated using the average of quadruplicate wells for each data point.

T1 sequence (Q1A7N1 1-1104): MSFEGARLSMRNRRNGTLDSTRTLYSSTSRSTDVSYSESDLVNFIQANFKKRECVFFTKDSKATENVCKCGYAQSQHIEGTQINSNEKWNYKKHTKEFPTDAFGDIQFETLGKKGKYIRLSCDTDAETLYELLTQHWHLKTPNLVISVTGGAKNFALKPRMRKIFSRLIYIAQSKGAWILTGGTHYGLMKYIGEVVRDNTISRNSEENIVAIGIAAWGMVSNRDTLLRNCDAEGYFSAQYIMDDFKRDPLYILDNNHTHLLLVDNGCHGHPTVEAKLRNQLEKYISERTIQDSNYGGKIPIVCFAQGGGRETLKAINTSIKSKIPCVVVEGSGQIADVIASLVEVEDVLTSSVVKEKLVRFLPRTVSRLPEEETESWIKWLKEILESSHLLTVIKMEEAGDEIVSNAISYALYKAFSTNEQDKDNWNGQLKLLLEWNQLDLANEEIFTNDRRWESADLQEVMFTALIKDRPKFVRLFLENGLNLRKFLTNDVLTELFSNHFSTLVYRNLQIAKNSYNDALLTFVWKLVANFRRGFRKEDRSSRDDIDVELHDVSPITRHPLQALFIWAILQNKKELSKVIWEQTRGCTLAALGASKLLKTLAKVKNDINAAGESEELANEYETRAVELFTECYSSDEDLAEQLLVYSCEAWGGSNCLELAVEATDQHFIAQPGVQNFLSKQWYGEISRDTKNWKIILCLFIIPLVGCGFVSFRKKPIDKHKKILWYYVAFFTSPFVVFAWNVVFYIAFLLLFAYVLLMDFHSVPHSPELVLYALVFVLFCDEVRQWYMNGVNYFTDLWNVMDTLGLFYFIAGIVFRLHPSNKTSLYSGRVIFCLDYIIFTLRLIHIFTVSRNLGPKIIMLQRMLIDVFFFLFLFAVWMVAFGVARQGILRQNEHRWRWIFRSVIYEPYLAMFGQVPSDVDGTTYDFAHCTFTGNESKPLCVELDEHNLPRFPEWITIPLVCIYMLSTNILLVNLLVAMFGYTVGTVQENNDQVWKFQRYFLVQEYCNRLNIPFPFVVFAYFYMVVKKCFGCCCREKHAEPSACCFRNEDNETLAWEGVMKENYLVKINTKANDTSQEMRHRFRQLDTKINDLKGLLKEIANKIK

In the case of `Cc1c(N(Cc2ccc(OC(F)(F)F)cc2)S(=O)(=O)CCNCCC(F)(F)F)sc2ccccc12` [Cpd 13, N-(3-Methylbenzo[b]thiophen-2-yl)-N-(4-trifluoromethoxy-benzyl)-2-(3,3,3-trifluoropropylamino)ethylsulfonamide], the inhibition at 0.2 µM stood at 72% and the IC50 was determined as 74 nM.

For the molecule `CCCN(C)CCS(=O)(=O)N(Cc1ccc(OC(F)(F)F)cc1)c1sc2ccccc2c1C` [Cpd 7, N-(3-Methylbenzo[b]thiophen-2-yl)-N-(4-trifluoromethoxy-benzyl)-2-(methyl-propylamino)ethylsulfonamide], the inhibition at 0.2 µM was 99% and the IC50 worked out at 29 nM.

Turning to `CCC(=O)N(CCS(=O)(=O)N(CCC1CC1)c1sc2ccccc2c1C)CC(C)C` [Cpd 93, N-(3-Methylbenzo[b]thiophen-2-yl)-N-(2-cyclopropyl-ethyl)-2-(N-propionoyl-isobutylamino)ethylsulfonamide], the inhibition at 0.2 µM worked out at 100% and the 50% inhibitory concentration (IC50) amounted to 43 nM.

As for `Cc1c(N(Cc2ccc(OC(F)(F)F)cc2)S(=O)(=O)CCN(C)CC(C)C)sc2ccccc12` [Cpd 11, N-(3-Methylbenzo[b]thiophen-2-yl)-N-(4-trifluoromethoxy-benzyl)-2-(methyl-isobutylamino)ethylsulfonamide], the inhibition at 0.2 µM is 100% and the IC50 turned out to be 22 nM.

In the case of `O=S(=O)(CCN1CCCCC1)N(Cc1ccc(OC(F)(F)F)cc1)c1sc2ccccc2c1Cl` [Cpd 3, N-(3-Chlorobenzo[b]thiophen-2-yl)-N-(4-trifluoromethoxy-benzyl)-2-(piperidin-1-yl)ethylsulfonamide], the inhibition at 0.2 µM came out at 97% and the concentration for half-maximal inhibition (IC50) amounted to 30 nM.

As to `Cc1c(N(Cc2ccc(OC(F)(F)F)cc2)S(=O)(=O)CCN2CCNC(=O)C2)sc2ccccc12` [Cpd 27, N-(3-Methylbenzo[b]thiophen-2-yl)-N-(4-trifluoromethoxy-benzyl)-2-(3-oxopiperazin-1-yl)ethylsulfonamide], the inhibition at 0.2 µM was determined as 101% and the IC50 is 20 nM.

Take `CC(=O)N1CCN(CCS(=O)(=O)N(Cc2ccc(OC(F)(F)F)cc2)c2ccc3ccccc3c2)CC1` [Cpd 58, N-(Naphth-2-yl)-N-(4-trifluoromethoxy-benzyl)-2-(4-acetylpiperazin-1-yl)ethylsulfonamide]: the inhibition at 0.2 µM is 67%.

`Cc1c(N(Cc2ccc(F)c(F)c2)S(=O)(=O)CCN(C)Cc2ccccc2)sc2ccccc12` [Cpd 81, N-(3-Methylbenzo[b]thiophen-2-yl)-N-(3,4-difluoro-benzyl)-2-(benzyl-methylamino)ethylsulfonamide]: the inhibition at 0.2 µM amounted to 101% and the concentration for half-maximal inhibition (IC50) stood at 36 nM.

Turning to `Cc1c(N(Cc2ccc(OC(F)(F)F)cc2)S(=O)(=O)CCN2CCS(=O)(=O)CC2)sc2ccccc12` [Cpd 35, N-(3-Methylbenzo[b]thiophen-2-yl)-N-(4-trifluoromethoxy-benzyl)-2-(1,1-dioxothiomorpholin-4-yl)ethylsulfonamide], the inhibition at 0.2 µM came out at 97% and the IC50 is 30 nM.

Consider `Cc1c(N(Cc2ccc(OC(F)(F)F)cc2)S(=O)(=O)CCNCC(F)(F)F)sc2ccccc12` [Cpd 60, N-(3-Methylbenzo[b]thiophen-2-yl)-N-(4-trifluoromethoxy-benzyl)-2-(2,2,2-trifluoroethylamino)ethylsulfonamide], for which the inhibition at 0.2 µM worked out at 100% and the IC50 came out at 14 nM.

For the molecule `Cc1c(N(Cc2ccc(F)cc2)S(=O)(=O)CCN2CCCC(F)(F)C2)sc2ccccc12` [Cpd 69, N-(3-Methyl-benzo[b]thiophen-2-yl)-N-(4-fluoro-benzyl)-2-(3,3-difluoropiperidin-1-yl)-ethylsulfonamide], the inhibition at 0.2 µM stood at 99% and the half-inhibitory concentration (IC50) came out at 12 nM.

In the case of `Cc1c(N(Cc2ccc(OC(F)(F)F)cc2)S(=O)(=O)CCN(C)CCO)sc2ccccc12` [Cpd 10, N-(3-Methylbenzo[b]thiophen-2-yl)-N-(4-trifluoromethoxy-benzyl)-2-(methyl-2-hydroxyethylamino)ethylsulfonamide], the inhibition at 0.2 µM turned out to be 98% and the concentration for half-maximal inhibition (IC50) came to 29 nM.

Regarding `Cc1c(N(Cc2ccc(OC(F)(F)F)cc2)S(=O)(=O)CCN2CCC(O)CC2)sc2ccccc12` [Cpd 20, N-(3-Methylbenzo[b]thiophen-2-yl)-N-(4-trifluoromethoxy-benzyl)-2-(4-hydroxypiperidin-1-yl)ethylsulfonamide], the inhibition at 0.2 µM was found to be 99% and the IC50 turned out to be 25 nM.

In the case of `CNCCS(=O)(=O)N(Cc1ccc(OC(F)(F)F)cc1)c1sc2ccccc2c1C` [Cpd 48, N-(3-Methylbenzo[b]thiophen-2-yl)-N-(4-trifluoromethoxy-benzyl)-2-(methylamino)ethylsulfonamide], the inhibition at 0.2 µM worked out at 24%.

Consider `CCCN(CCS(=O)(=O)N(Cc1ccc(OC(F)(F)F)cc1)c1sc2ccccc2c1C)CC(C)C` [Cpd 82, N-(3-Methylbenzo[b]thiophen-2-yl)-N-(4-trifluoromethoxy-benzyl)-2-(isobutyl-propylamino)ethylsulfonamide], for which the inhibition at 0.2 µM came to 100% and the IC50 came out at 16 nM.

For the molecule `Cc1c(N(Cc2ccc(OC(F)(F)F)cc2)S(=O)(=O)CCN2CCC(CO)CC2)sc2ccccc12` [Cpd 23, N-(3-Methylbenzo[b]thiophen-2-yl)-N-(4-trifluoromethoxy-benzyl)-2-(4-hydroxymethylpiperidin-1-yl)ethylsulfonamide], the inhibition at 0.2 µM was found to be 97% and the IC50 came out at 44 nM.

In the case of `CC(=O)N(CCS(=O)(=O)N(CCCCC(F)(F)F)c1sc2ccccc2c1C)CC(C)C` [Cpd 88, N-(3-Methylbenzo[b]thiophen-2-yl)-N-(5,5,5-trifluoro-n-pent-1-yl)-2-(N-acetyl-isobutylamino)ethylsulfonamide], the inhibition at 0.2 µM amounted to 91% and the IC50 turned out to be 59 nM.

Consider `O=S(=O)(CCN1CCSCC1)N(Cc1ccc(OC(F)(F)F)cc1)c1sc2ccccc2c1Br` [Cpd 66, N-(3-Bromobenzo[b]thiophen-2-yl)-N-(4-trifluoromethoxy-benzyl)-2-(thiomorpholin-4-yl)ethylsulfonamide], for which the inhibition at 0.2 µM came out at 100% and the IC50 was found to be 29 nM.

Turning to `Cc1c(N(Cc2ccc(OC(F)(F)F)cc2)S(=O)(=O)CCN2CCC(C(F)(F)F)CC2)sc2ccccc12` [Cpd 44, N-(3-Methylbenzo[b]thiophen-2-yl)-N-(4-trifluoromethoxy-benzyl)-2-(4-trifluoromethylpiperidin-1-yl)ethylsulfonamide], the inhibition at 0.2 µM was 99% and the IC50 was 45 nM.

As to `Cc1c(N(Cc2ccc(OC(F)(F)F)cc2)S(=O)(=O)CCN(C(C)C)C(C)C)sc2ccccc12` [Cpd 59, N-(3-Methylbenzo[b]thiophen-2-yl)-N-(4-trifluoromethoxy-benzyl)-2-(di-isopropylamino)ethylsulfonamide], the inhibition at 0.2 µM was 100% and the 50% inhibitory concentration (IC50) was 8 nM.

`CC(=O)N1CCN(CCS(=O)(=O)N(Cc2ccc(OC(F)(F)F)cc2)c2sc3ccccc3c2C)CC1` [Cpd 29, N-(3-Methylbenzo[b]thiophen-2-yl)-N-(4-trifluoromethoxy-benzyl)-2-(4-acetylpiperazin-1-yl)ethylsulfonamide]: the inhibition at 0.2 µM came to 101% and the half-inhibitory concentration (IC50) is 12 nM.

Regarding `Cc1c(N(Cc2ccc(OC(F)(F)F)cc2)S(=O)(=O)CCNCC(C)C)sc2ccccc12` [Cpd 73, N-(3-Methylbenzo[b]thiophen-2-yl)-N-(4-trifluoromethoxy-benzyl)-2-(isobutylamino)ethylsulfonamide], the inhibition at 0.2 µM was 19%.

Turning to `Cc1c(N(Cc2ccc(OC(F)(F)F)cc2)S(=O)(=O)CCN2CCCC2)sc2ccccc12` [Cpd 36, N-(3-Methylbenzo[b]thiophen-2-yl)-N-(4-trifluoromethoxy-benzyl)-2-(pyrrolidin-1-yl)ethylsulfonamide], the inhibition at 0.2 µM came to 94% and the IC50 worked out at 56 nM.

Consider `O=S(=O)(CCN1CCc2ccccc2C1)N(Cc1ccc(OC(F)(F)F)cc1)c1ccc2ccccc2c1` [Cpd 54, N-(Naphth-2-yl)-N-(4-trifluoromethoxy-benzyl)-2-(1,2,3,4-tetrahydroisoquinolin-2-yl)ethylsulfonamide], for which the inhibition at 0.2 µM was determined as 86% and the concentration for half-maximal inhibition (IC50) was determined as 51 nM.

Consider `O=S(=O)(CCN1CCCCC1)N(Cc1ccc(OC(F)(F)F)cc1)c1cc2ccccc2s1` [Cpd 2, N-(Benzo[b]thiophen-2-yl)-N-(4-trifluoromethoxy-benzyl)-2-(piperidin-1-yl)ethylsulfonamide], for which the inhibition at 0.2 µM stood at 92% and the IC50 is 33 nM.

Turning to `CCCN(CCS(=O)(=O)N(CCCCC(F)(F)F)c1sc2ccccc2c1C)CC(C)C` [Cpd 91, N-(3-Methylbenzo[b]thiophen-2-yl)-N-(5,5,5-tritluoro-n-pent-1-yl)-2-(n-propyl-isobutylamino)ethylsulfonamide], the inhibition at 0.2 µM amounted to 99% and the IC50 stood at 50 nM.

`Cc1c(N(CCCCC(F)(F)F)S(=O)(=O)CCN2CCC(C(=O)O)CC2)sc2ccccc12` [Cpd 86, N-(3-Methylbenzo[b]thiophen-2-yl)-N-(5,5,5-trifluoropent-1-yl)-2-(4-carboxypiperidin-1-yl)ethylsulfonamide]: the inhibition at 0.2 µM came to 34%.
